Results: ChEMBL document CHEMBL3714723, “Thiazole and oxazole-substituted arylamides as P2X3 and P2X2/3 antagonists” (2010)
The source made the active and inactive calls. No rule for the calls is given here.

Target: T1, P2X purinoceptor 3 (Rattus norvegicus) (UniProt P49654)
T1 sequence (whole entry): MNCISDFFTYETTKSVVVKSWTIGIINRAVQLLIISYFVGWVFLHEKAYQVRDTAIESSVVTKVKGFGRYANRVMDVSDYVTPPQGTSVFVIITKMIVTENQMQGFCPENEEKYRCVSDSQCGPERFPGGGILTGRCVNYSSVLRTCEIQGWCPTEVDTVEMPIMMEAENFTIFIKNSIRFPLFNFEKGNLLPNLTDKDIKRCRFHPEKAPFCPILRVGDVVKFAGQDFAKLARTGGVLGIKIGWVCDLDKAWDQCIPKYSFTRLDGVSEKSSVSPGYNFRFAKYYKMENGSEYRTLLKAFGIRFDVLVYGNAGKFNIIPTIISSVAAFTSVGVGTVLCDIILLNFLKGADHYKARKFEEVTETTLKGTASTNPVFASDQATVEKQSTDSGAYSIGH
Test: Antagonist activity against rat P2X3 receptor expressed in CHOK1 cells assessed as inhibition of alpha,beta-meATP-induced calcium response incubated for 20 mins by Fluo-3AM dye based FLIPR assay
Format: functional, cell-based
Details: CHO-K1

Row | SMILES | antagonist activity call (active/inactive)
1 | COCC(C)NC(=O)c1cc(-c2cncs2)cc(-c2ccc(F)cc2F)c1 (stereo not given) | Active
2 | Cc1ccc(-c2cc(C(=O)N[C@H](C)CO)cc(-c3nccs3)c2)cc1 | Active
3 | CC(=O)N1CCN(C[C@@H](C)NC(=O)c2cc(-c3ccc(C)cc3)cc(-c3nccs3)c2)CC1 | Active
4 | Cc1ccc(-c2cc(C(=O)N[C@H](C)CN3CCN(S(C)(=O)=O)CC3)cc(-c3nccs3)c2)c(F)c1 | Active
5 | COCC(C)NC(=O)c1cc(-c2ccc(C)cc2)cc(-c2ncco2)c1 (stereo not given) | Active
6 | COCC(C)NC(=O)c1cc(-c2ccc(C)cc2)cc(-c2oncc2C)c1 (stereo not given) | Active
7 | C[C@H](CN1CCOCC1)NC(=O)c1cc(-c2nccs2)cc(-c2ccc(F)cc2Cl)c1 | Active
8 | Cc1ccc(-c2cc(C(=O)NC(C)(C)c3ccccc3)cc(-c3nccs3)c2)cc1 | Active
9 | Cc1ccc(-c2cc(C(=O)NC(C)c3cnccn3)cc(-c3cncs3)c2)cc1 (stereo not given) | Active
10 | Cc1ccc(-c2cc(C(=O)NCCOCCO)cc(-c3nccs3)c2)cc1 | Active
11 | Cc1ccc(-c2cc(C(=O)N[C@H](C)CN3CCOCC3)cc(-c3cncs3)c2)cc1 | Active
12 | Cc1ccc(-c2cc(C(=O)N[C@H](C)CN3CCN(S(C)(=O)=O)CC3)cc(-c3cncs3)c2)c(F)c1 | Active
13 | COCC(C)NC(=O)c1cc(-c2ccc(C)cc2)cc(-c2cnco2)c1 (stereo not given) | Active
14 | CCC(C)(C)NC(=O)c1cc(-c2ccc(C)cc2)cc(-c2nccs2)c1 | Active
15 | Cc1ccc(-c2cc(C(=O)N[C@H](C)CN3CCN(S(C)(=O)=O)CC3)cc(-c3cncs3)c2)cc1 | Active
16 | COCC(C)NC(=O)c1cc(-c2ccc(C)cc2)cc(-c2ccno2)c1 (stereo not given) | Active

Row | SMILES | antagonist activity call (active/inactive)
17 | Cc1ccc(-c2cc(C(=O)NC(C)c3ccco3)cc(-c3nccs3)c2)cc1 (stereo not given) | Active
18 | Cc1ccc(-c2cc(C(=O)N[C@H](C)CN3CCOCC3)cc(-c3nccs3)c2)c(F)c1 | Active
19 | C[C@H](CN1CCN(S(C)(=O)=O)CC1)NC(=O)c1cc(-c2cncs2)cc(-c2ccc(F)cc2Cl)c1 | Active
20 | COCC(C)NC(=O)c1cc(-c2ccc(C)cc2)cc(-c2ncc(C(=O)NC(C)C)s2)c1 (stereo not given) | Active
21 | COCC(C)NC(=O)c1cc(-c2ccc(C)cc2)cc(-c2cocn2)c1 (stereo not given) | Active
22 | COCC(C)NC(=O)c1cc(-c2ccc(C)cc2)cc(-c2ncc(C(=O)N(C)C)s2)c1 (stereo not given) | Active
23 | Cc1ccc(-c2cc(C(=O)N[C@H](C)CN3CCS(=O)(=O)CC3)cc(-c3scnc3C)c2)cc1 | Active
24 | COCC(C)NC(=O)c1cc(-c2ccc(C)cc2)cc(-c2nc3ccccc3s2)c1 (stereo not given) | Active
25 | CCCc1ncoc1-c1cc(C(=O)NCc2cnc(C)cn2)cc(-c2ccc(C)cn2)c1 | Active
26 | Cc1ccc(-c2cc(C(=O)N[C@H](C)CN3CCN(S(C)(=O)=O)CC3)cc(-c3nccs3)c2)cc1 | Active
27 | C[C@H](CN1CCN(S(C)(=O)=O)CC1)NC(=O)c1cc(-c2nccs2)cc(-c2ccc(F)cc2Cl)c1 | Active
28 | COCC(C)NC(=O)c1cc(-c2ccc(C)cc2)cc(-c2nccs2)c1 (stereo not given) | Active
29 | CCc1ncsc1-c1cc(C(=O)NCc2cnc(C)cn2)cc(-c2ccc(C)cc2)c1 | Active
30 | CCOC(=O)c1cnc(-c2cc(C(=O)NC(C)COC)cc(-c3ccc(C)cc3)c2)s1 (stereo not given) | Active
31 | COC[C@H](C)NC(=O)c1cc(-c2ccc(C)cc2)cc(-c2scnc2C)c1 | Active

Other lines, results leading:

Row | antagonist activity call (active/inactive) | SMILES
32 | Active | Cc1ccc(-c2cc(C(=O)N[C@H](C)CN3CCOCC3)cc(-c3nccs3)c2)cc1
33 | Active | Cc1ccc(-c2cc(C(=O)NCc3ccc(C)nn3)cc(-c3scnc3C(C)C)c2)nc1
34 | Active | Cc1ccc(-c2cc(C(=O)NC(C)c3cnccn3)cc(-c3nccs3)c2)c(F)c1 (stereo not given)
35 | Active | Cc1ccc(-c2cc(C(=O)NCc3ccc(C)nn3)cc(-c3ncsc3C(C)C)c2)nc1
36 | Active | CC(=O)N1CCN(C[C@@H](C)NC(=O)c2cc(-c3ccc(C)cc3)cc(-c3scnc3C)c2)CC1
37 | Active | COCC(C)NC(=O)c1cc(-c2cncs2)cc(-c2ccc(F)cc2Cl)c1 (stereo not given)
38 | Active | Cc1ccc(-c2cc(C(=O)N[C@@H](C)CO)cc(-c3scnc3C(C)C)c2)nc1
39 | Active | Cc1ccc(-c2cc(C(=O)N[C@H](C)CN3CCOCC3)cc(-c3scnc3C)c2)cc1
40 | Active | Cc1ccc(-c2cc(C(=O)NC(C)CN(C)C)cc(-c3nccs3)c2)cc1 (stereo not given)
41 | Active | COCC(C)NC(=O)c1cc(-c2ccc(C)cc2)cc(-c2ccns2)c1 (stereo not given)
42 | Active | CC(=O)N1CCN(C[C@@H](C)NC(=O)c2cc(-c3nccs3)cc(-c3ccc(C)cc3F)c2)CC1
43 | Active | Cc1ccc(-c2cc(C(=O)N[C@H](C)CO)cc(-c3nccs3)c2)c(F)c1
44 | Active | Cc1ccc(-c2cc(C(=O)NC(C)CO)cc(-c3scnc3C)c2)cc1 (stereo not given)
45 | Active | COCC(C)NC(=O)c1cc(-c2ccc(C)cc2)cc(-c2cscn2)c1 (stereo not given)
46 | Active | Cc1ccc(-c2cc(C(=O)NC(C)c3cnccn3)cc(-c3nccs3)c2)cc1 (stereo not given)
47 | Active | CNC(=O)c1cnc(-c2cc(C(=O)NC(C)COC)cc(-c3ccc(C)cc3)c2)s1 (stereo not given)
48 | Active | C[C@H](CN1CCOCC1)NC(=O)c1cc(-c2cncs2)cc(-c2ccc(F)cc2Cl)c1
49 | Active | Cc1ccc(-c2cc(C(=O)NC(C)c3cnccn3)cc(-c3scnc3C)c2)cc1 (stereo not given)
50 | Active | CC(=O)N1CCN(C[C@@H](C)NC(=O)c2cc(-c3ccc(C)cc3)cc(-c3cncs3)c2)CC1
51 | Active | CCC(C)NC(=O)c1cc(-c2ccc(C)cc2)cc(-c2nccs2)c1 (stereo not given)
52 | Active | COC[C@@H](C)NC(=O)c1cc(-c2ccc(C)cc2)cc(-c2scnc2C)c1
53 | Active | COc1ccc([C@@H](C)NC(=O)c2cc(-c3ccc(C)cc3)cc(-c3nccs3)c2)cc1
54 | Active | COCC(C)NC(=O)c1cc(-c2ccc(C)cc2)cc(-c2cncs2)c1 (stereo not given)
55 | Active | COCC(C)NC(=O)c1cc(-c2ccc(C)cc2)cc(-c2scnc2C)c1 (stereo not given)
